Results reported in patent US20240358777A1, “COMPOSITIONS COMPRISING BACILLUS AMYLOLIQUEFACIENS FOR PREVENTING AND TREATING ULCERATIVE COLITIS” (Artugen Therapeutics Ltd., priority 2021, published 2024).
In brackets after ≈: the same amount, converted by molar mass.

Legend:
ART24 [1] = assay: Antibiotic susceptibility of ART24, MIC, VetMIC Lact-1 & Lact-2 panels (Table 6); type: cell-based, Bacillus amyloliquefaciens; conditions: for MIC: Bacillus amyloliquefaciens, read-out: ART24 MIC
Description: The minimum inhibitory concentration (MIC) of the listed antimicrobials is expressed as μg/mL. […] From this suspension 46 μL was transferred in to 23 mL of 90% Iso-Sensitest Broth (CM0473, Oxoid) containing 10% BHI broth to end with a final inoculum concentration of 5×10^5 CFU/mL. The wells of the prefabricated 96-well plates were filled with 100 μL of the final suspension. The plates were sealed with an […], Sigma Aldrich) sealing film (to facilitate growth of the […] strains. The plates were then incubated for 24 hr at 37° C. The results are recorded after 24 hours as the lowest concentration of the antibiotic to inhibit visible growth. The prefabricated panels […], Uppsala, Sweden) comprising the antibiotics ampicillin, vancomycin, gentamicin, kanamycin, streptomycin, erythromycin, clindamycin, tetracycline, chloramphenicol, neomycin, penicillin, quinupristin-dalfopristin, linezolid, trimethoprim, ciprofloxacin and rifampicin were used.

ART24 [2] = assay: Additional EFSA-recommended MIC studies on ART24 lots and cell banks (Table 7); type: cell-based, Bacillus amyloliquefaciens
Description: The minimum inhibitory concentration (MIC) of the listed antimicrobials is expressed as μg/mL. Additional studies following EFSA testing recommendations were performed on lyophilized ART24 lots CO-33-10A2 and CO-33-12A2 and Research and Master Cell Banks CO-33-ART24 BHI and CO-33-ART24 SYD, and those results are shown in Table 7.

[3] = 24 hr at 37° C., average results from N = 6
[4] = source CO-33-10A2 (lyophilized lot)
[5] = source CO-33-12A2 (lyophilized lot)
[6] = Bacillus amyloliquefaciens, source CO-33-10A2 (lyophilized lot), read-out: MIC
[7] = Bacillus amyloliquefaciens, source CO-33-12A2 (lyophilized lot), read-out: MIC
[8] = Bacillus amyloliquefaciens, source CO-33 ART 24 BHI, read-out: MIC
[9] = Bacillus amyloliquefaciens, source CO-33 ART 024 SYD, read-out: MIC

Row | Molecule | MIC interpretation (ART24 [2]; source CO-33-10A2) | MIC interpretation (ART24 [2]; source CO-33-12A2) | MIC interpretation (ART24 [2]; source CO-33 ART 24 BHI) | MIC interpretation (ART24 [2]; source CO-33 ART 024 SYD) | MIC (ART24 [1]; [3]) [µg/mL] | MIC (ART24 [2]; [6]) [µg/mL] | MIC (ART24 [2]; [7]) [µg/mL] | MIC (ART24 [2]; [8]) [µg/mL] | MIC (ART24 [2]; [9]) [µg/mL] | other results
1 | Gentamicin | (S) | (S) | (S) | (S) | – | – | – | – | – | ART24 MIC (ART24 [1]; [3]): ≤0.5 µg/mL; MIC (ART24 [2]; [4]): ≤0.06 µg/mL; MIC (ART24 [2]; [5]): ≤0.06 µg/mL; MIC (ART24 [2]; source CO-33 ART 24 BHI): ≤0.06 µg/mL; MIC (ART24 [2]; source CO-33 ART 024 SYD): ≤0.06 µg/mL
2 | NC[C@H]1O[C@H](O[C@H]2[C@H](O)[C@@H](O[C@H]3O[C@H](CO)[C@@H](O)[C@H](N)[C@H]3O)[C@H](N)C[C@@H]2N)[C@H](O)[C@@H](O)[C@@H]1O [Kanamycin] | (S) | (S) | (S) | (S) | ≤ 2 | ≤ 0.5 | ≤ 0.5 | ≤ 0.5 | ≤ 0.5 | –
3 | Neomycin | – | – | – | – | – | – | – | – | – | ART24 MIC (ART24 [1]; [3]): ≤0.5 µg/mL; MIC (ART24 [2]; [4]): ≤0.12 µg/mL; MIC (ART24 [2]; [5]): ≤0.12 µg/mL; MIC (ART24 [2]; source CO-33 ART 24 BHI): ≤0.12 µg/mL; MIC (ART24 [2]; source CO-33 ART 024 SYD): ≤0.12 µg/mL
4 | CN(C)[C@@H]1C(O)=C(C(N)=O)C(=O)[C@@]2(O)C(O)=C3C(=O)c4c(O)cccc4[C@@](C)(O)[C@H]3C[C@@H]12 [Tetracycline] | (S) | (S) | (S) | (S) | 4 (≈ 9 µM) | 2 (≈ 4.5 µM) | 2 (≈ 4.5 µM) | 2 (≈ 4.5 µM) | 2 (≈ 4.5 µM) | –
5 | CC1(C)S[C@@H]2[C@H](NC(=O)[C@H](N)c3ccccc3)C(=O)N2[C@H]1C(=O)O [Ampicillin] | (S) | (S) | (S) | (S) | 0.25 (≈ 0.715 µM) | ≤ 0.03 | ≤ 0.03 | ≤ 0.03 | ≤ 0.03 | –
6 | CO[C@H]1/C=C/O[C@@]2(C)Oc3c(C)c(O)c4c(O)c(c(/C=N/N5CCN(C)CC5)c(O)c4c3C2=O)NC(=O)/C(C)=C\C=C\[C@H](C)[C@H](O)[C@@H](C)[C@@H](O)[C@@H](C)[C@H](OC(C)=O)[C@@H]1C [Rifampicin] | (S) | (S) | (S) | (S) | 0.5 (≈ 0.608 µM) | 0.25 (≈ 0.304 µM) | 0.25 (≈ 0.304 µM) | 0.25 (≈ 0.304 µM) | 0.25 (≈ 0.304 µM) | –
7 | [H]/N=C(/N)N[C@H]1[C@H](O)[C@@H](O)[C@H](O[C@@H]2O[C@@H](C)[C@](O)(C=O)[C@H]2O[C@@H]2O[C@@H](CO)[C@H](O)[C@@H](O)[C@@H]2NC)[C@@H](N/C(N)=N\[H])[C@@H]1O [Streptomycin] | (S) | (S) | (S) | (S) | 4 (≈ 6.88 µM) | 1 (≈ 1.72 µM) | 1 (≈ 1.72 µM) | 1 (≈ 1.72 µM) | 2 (≈ 3.44 µM) | –
8 | CC[C@H]1OC(=O)[C@H](C)[C@@H](O[C@H]2C[C@@](C)(OC)[C@@H](O)[C@H](C)O2)[C@H](C)[C@@H](O[C@@H]2O[C@H](C)C[C@H](N(C)C)[C@H]2O)[C@](C)(O)C[C@@H](C)C(=O)[C@H](C)[C@@H](O)[C@]1(C)O [Erythromycin] | (S) | (S) | (S) | (S) | 0.12 (≈ 0.164 µM) | 0.06 (≈ 0.0818 µM) | 0.06 (≈ 0.0818 µM) | 0.12 (≈ 0.164 µM) | 0.12 (≈ 0.164 µM) | –
9 | Quinupristin-dalfopristin | – | – | – | – | – | – | – | – | – | ART24 MIC (ART24 [1]; [3]): 4 µg/mL; MIC (ART24 [2]; [4]): 1 µg/mL; MIC (ART24 [2]; [5]): 2 µg/mL; MIC (ART24 [2]; source CO-33 ART 24 BHI): 2 µg/mL; MIC (ART24 [2]; source CO-33 ART 024 SYD): 2 µg/mL
10 | Penicillin | (S) | (S) | (S) | (S) | – | – | – | – | – | ART24 MIC (ART24 [1]; [3]): 0.12 to 0.5 µg/mL; MIC (ART24 [2]; [4]): ≤0.03 µg/mL; MIC (ART24 [2]; [5]): ≤0.03 µg/mL; MIC (ART24 [2]; source CO-33 ART 24 BHI): ≤0.03 µg/mL; MIC (ART24 [2]; source CO-33 ART 024 SYD): 0.06 µg/mL
11 | CCC[C@@H]1C[C@@H](C(=O)N[C@@H]([C@H]2O[C@H](SC)[C@H](O)[C@@H](O)[C@H]2O)[C@H](C)Cl)N(C)C1 [Clindamycin] | (S) | (S) | (S) | (S) | 0.5 to 1 (≈ 1.18 to 2.35 µM) | 0.12 (≈ 0.282 µM) | 0.25 (≈ 0.588 µM) | 0.25 (≈ 0.588 µM) | 0.25 (≈ 0.588 µM) | –
12 | CCc1c(Cl)c(O)c(Cl)c(O)c1C(=O)O[C@H]1[C@H](O)[C@H](OC)[C@H](OC/C2=C\C=C\C[C@H](O)/C(C)=C/[C@H](CC)[C@@H](O[C@@H]3OC(C)(C)[C@@H](OC(=O)C(C)C)[C@H](O)[C@@H]3O)/C(C)=C/C(C)=C/C[C@@H]([C@@H](C)O)OC2=O)O[C@@H]1C [Fidaxomicin] | – | – | – | – | – | 2 (≈ 1.89 µM) | 4 (≈ 3.78 µM) | 4 (≈ 3.78 µM) | 4 (≈ 3.78 µM) | –
13 | CC(=O)NC[C@H]1CN(c2ccc(N3CCOCC3)c(F)c2)C(=O)O1 [Linezolid] | – | – | – | – | 0.5 (≈ 1.48 µM) | 0.25 (≈ 0.741 µM) | 0.5 (≈ 1.48 µM) | 0.5 (≈ 1.48 µM) | 0.5 (≈ 1.48 µM) | –
14 | CN[C@H](CC(C)C)C(=O)N[C@H]1C(=O)N[C@@H](CC(N)=O)C(=O)N[C@H]2C(=O)N[C@H]3C(=O)N[C@H](C(=O)N[C@H](C(=O)O)c4cc(O)cc(O)c4-c4cc3ccc4O)[C@H](O)c3ccc(c(Cl)c3)Oc3cc2cc(c3O[C@@H]2O[C@H](CO)[C@@H](O)[C@H](O)[C@H]2O[C@H]2C[C@](C)(N)[C@H](O)[C@H](C)O2)Oc2ccc(cc2Cl)[C@H]1O [Vancomycin] | (S) | (S) | (S) | (S) | – | – | – | – | – | MIC (ART24 [1]; 24 h): 0.5 to 1 µg/mL (≈ 0.345 to 0.69 µM); MIC (ART24 [2]; Bacillus amyloliquefaciens, source CO-33-10A2 (lyophilized lot)): ≤ 0.25 µg/mL; MIC (ART24 [2]; Bacillus amyloliquefaciens, source CO-33-12A2 (lyophilized lot)): ≤ 0.25 µg/mL; MIC (ART24 [2]; Bacillus amyloliquefaciens, source CO-33 ART 24 BHI): 0.5 µg/mL (≈ 0.345 µM); MIC (ART24 [2]; Bacillus amyloliquefaciens, source CO-33 ART 024 SYD): ≤ 0.25 µg/mL
15 | Cc1ncc([N+](=O)[O-])n1CCO [Metronidazole] | – | – | – | – | – | – | – | – | – | MIC (ART24 [2]; Bacillus amyloliquefaciens, aerobic, source CO-33-10A2, read-out: MIC): > 64 µg/mL; MIC (ART24 [2]; Bacillus amyloliquefaciens, aerobic, source CO-33-12A2, read-out: MIC): > 64 µg/mL; MIC (ART24 [2]; Bacillus amyloliquefaciens, aerobic, source CO-33 ART 24 BHI, read-out: MIC): > 64 µg/mL; MIC (ART24 [2]; Bacillus amyloliquefaciens, aerobic, source CO-33 ART 024 SYD, read-out: MIC): > 64 µg/mL; MIC (ART24 [2]; Bacillus amyloliquefaciens, anaerobic, source CO-33-10A2, read-out: MIC): 64 µg/mL (≈ 374 µM); MIC (ART24 [2]; Bacillus amyloliquefaciens, anaerobic, source CO-33-12A2, read-out: MIC): 64 µg/mL (≈ 374 µM); MIC (ART24 [2]; Bacillus amyloliquefaciens, anaerobic, source CO-33 ART 24 BHI, read-out: MIC): 64 µg/mL (≈ 374 µM); MIC (ART24 [2]; Bacillus amyloliquefaciens, anaerobic, source CO-33 ART 024 SYD, read-out: MIC): 64 µg/mL (≈ 374 µM)
16 | COc1cc(Cc2cnc(N)nc2N)cc(OC)c1OC [Trimethoprim] | – | – | – | – | < 0.12 | ≤ 0.25 | < 0.25 | < 0.25 | < 0.25 | –
17 | O=C(O)c1cn(C2CC2)c2cc(N3CCNCC3)c(F)cc2c1=O [Ciprofloxacin] | (S) | (S) | (S) | (S) | ≤ 0.25 | ≤ 0.03 | ≤ 0.03 | ≤ 0.03 | ≤ 0.03 | –
18 | O=C(N[C@H](CO)[C@H](O)c1ccc([N+](=O)[O-])cc1)C(Cl)Cl [Chloroamphenicol, Chloramphenicol] | (S) | (S) | (S) | (S) | 4 (≈ 12.4 µM) | 2 (≈ 6.19 µM) | 2 (≈ 6.19 µM) | 2 (≈ 6.19 µM) | 2 (≈ 6.19 µM) | –
